In patent publication US20250186404A1, “METHODS OF USING A (THIAZOLYL)BENZENESULFONAMIDE DERIVATIVE” (Cyteir Therapeutics, Inc., priority 2023, published 2025):

Each molecule was assayed on Daudi (Burkitt Lymphoma) cells (assay: Intracellular Lactate Accumulation Assay (Lactate-Glo)). Conditions: Homo sapiens; Daudi cells, 2 h treatment, intracellular lactate accumulation; read-out: LactateGlo EC50.
Type: cell-based, human
Procedure: Intracellular lactate accumulation after a 2 h treatment with compounds of the present invention was measured in Daudi (Burkitt Lymphoma) cells using the Lactate-Glo Assay (Promega).
Daudi cells were seeded at 7,500 cells per well in 150 μL of growth medium (RPMI-1640 with 2 mM GlutaMAX+10% FBS) in clear, 96-well, flat-bottom microplates, and incubated overnight (37° C., 5% CO2). Compounds of the present invention were added using an INTEGRA VIAFLO 96 (8 point, 3-fold serial dilution, top concentration 1, 10, or 20 μM, 0.4% final DMSO concentration). After a 2 h incubation (37° C., 5% CO2) microplates containing cells were washed twice with 150 μL ice-cold PBS, resuspended in 25 μL ice-cold PBS containing 12.5 μL 0.6N HCl, and placed on a microplate shaker for 5 min to lyse the cells. Following lysis, 12.5 μL 1M Trizma base was added to neutralize the suspension, and microplates were returned to the microplate shaker for 1 min. Plates were sealed and stored at −20° C. until further processing. On the day of the assay, microplates were thawed for 45 min at room temperate and 50 μL Lactate Detection Reagent (prepared as specified by manufacturer) was added to each well. Microplates were placed on a plate shaker for 1 min and incubated at room temperature for 1 h. Luminescence was measured using a BioTek Cytation 5 Multi-Mode Reader. Curve fitting and calculation of EC50 was performed using GraphPad Prism.
In addition, Daudi human lymphoma cells were treated with a titration of Compound 67A for 4 h, then intracellular lactate was measured via LactateGlo (FIG. 2). Compound 67A treatment elevates intracellular lactate (FIGS. 3-5). […] Inhibiting MCT function in glycolytic cancer cells leads to an accumulation of intracellular lactate that impairs glycolysis and inhibits tumor cell growth, thereby making MCTs an attractive target for cancer therapy. Compound 67A inhibits the import of MCT ligands into cells, and induces dose-dependent intracellular lactate accumulation that correlates with cytotoxicity. MCT4 expression inversely correlates with lactate accumulation and the extent of Compound 67A cytotoxicity in cells.

Compound | EC50
COC(=O)NC1CCC(c2ncc(-c3ccc(NC(=O)OC(C)C)cc3S(=O)(=O)NC(C)(C)C)s2)CC1 (stereo not drawn) [Compound 76] | > 5 µM
CNC(=N)Nc1ccc(-c2cnc(C3CCC(NC(=O)OC(C)C)CC3)s2)c(S(=O)(=O)NC(C)(C)C)c1 (stereo not drawn) [Compound 75] | > 5 µM
CC(C)OC(=O)Nc1ccc(-c2cnc([C@H]3CC[C@@H](NC(=O)OC(C)C)CC3)s2)c(S(=O)(=O)NC(C)(C)C)c1 [Compound 67B] | > 5 µM
CC(C)OC(=O)NC1CCC(c2ncc(-c3ccc(NC(=O)NCc4ccccc4)cc3S(=O)(=O)NC(C)(C)C)s2)CC1 (stereo not drawn) [Compound 62B] | < 0.05 µM

The molecules below were run against T1, human MCT1 (Homo sapiens, UniProt P53985) (assay: MCT1 Transport Inhibition Assay (TPGA uptake, LC-MS/MS)). Conditions: MDCK-II cells overexpressing human MCT1, TPGA transport; read-out: BioIVT MCT1 Transporter IC50.
T1 construct: host or cells: MDCK-II (canine) cells, transient co-transfection
T1 sequence (P53985 1-500): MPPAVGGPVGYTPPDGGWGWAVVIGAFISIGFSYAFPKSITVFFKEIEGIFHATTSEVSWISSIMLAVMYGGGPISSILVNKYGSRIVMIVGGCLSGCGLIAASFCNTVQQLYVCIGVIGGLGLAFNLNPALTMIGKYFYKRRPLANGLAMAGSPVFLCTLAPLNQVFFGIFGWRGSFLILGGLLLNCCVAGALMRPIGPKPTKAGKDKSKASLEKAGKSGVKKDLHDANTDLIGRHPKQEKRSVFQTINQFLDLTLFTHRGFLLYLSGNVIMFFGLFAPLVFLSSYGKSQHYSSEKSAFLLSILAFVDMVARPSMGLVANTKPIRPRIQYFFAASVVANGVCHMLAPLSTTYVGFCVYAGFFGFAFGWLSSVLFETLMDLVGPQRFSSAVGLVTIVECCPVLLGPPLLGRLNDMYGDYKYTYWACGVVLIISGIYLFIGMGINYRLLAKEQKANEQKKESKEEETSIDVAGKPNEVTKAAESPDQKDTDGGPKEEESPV
T1 sequence (P35613 140-385 partner limits assumed): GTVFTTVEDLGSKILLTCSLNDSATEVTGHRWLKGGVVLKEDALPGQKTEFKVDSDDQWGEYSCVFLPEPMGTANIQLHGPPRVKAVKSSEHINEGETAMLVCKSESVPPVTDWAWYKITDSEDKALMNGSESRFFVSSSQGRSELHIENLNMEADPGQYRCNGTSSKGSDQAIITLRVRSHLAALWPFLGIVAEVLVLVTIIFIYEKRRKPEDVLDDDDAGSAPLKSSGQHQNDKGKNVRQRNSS
Type: cell-based
Procedure: Inhibition of MCT1 transport after treatment with compounds of the present invention was measured in MDCK-II cells that overexpress human MCT1 by quantifying the transport of 2-Thiophene-glycoxylic acid (TPGA) into cells using LC-MS/MS.
MDCK-II cells are seeded at 60,000 cells per well in growth medium (low-glucose DMEM+10% FBS) in 96-well trans-well membrane plates, and incubated overnight (37° C., 5% CO2). Cells were co-transfected with mammalian expression constructs coding for MCT1 and CD147 at a 2:1 ratio or an empty vector control (GFP) and then incubated for 48 h (37° C., 5% CO2). Cells were washed 3 times with HBSS and cells were preincubated with inhibitors or vehicle control at room temperature in HBSS for 30 min with orbital shaking (60 rpm). HBSS was aspirated from the wells and replaced with HBSS with 25 mM Bis-Tris pH5.5+inhibitor or vehicle control+500 μM TPGA and incubated for 1 min at room temperature with orbital shaking (60 rpm). Both the apical and basolateral side of the trans-well insert were washed 4 times with ice-cold PBS. Cells were lysed with 60 μL of cell extraction solution, and the amount of TPGA in each well was quantified in triplicate by LC-MS/MS. The MCT1-mediated uptake rate was calculated using the following equation: […]
Percent inhibition for each concentration of inhibitor tested was calculated using the following equation: […]
Curves were fit to the calculated percent inhibition for each inhibitor, and the IC50 representing the concentration of inhibitor at which MCT1 is inhibited by 50% was calculated from this curve.
Canine MDCKII cells expressing human MCT1 were treated with a titration of Compound 67A, and import of the MCT1 substrate, 2-TPGA was measured by LC-MS (FIG. 1).

Compound | IC50
CC(C)OC(=O)Nc1ccc(-c2cnc([C@H]3CC[C@@H](NC(=O)OC(C)C)CC3)s2)c(S(=O)(=O)NC(C)(C)C)c1 [Compound 67B] | 1 to 5 µM
CC(C)OC(=O)N[C@H]1CC[C@H](c2ncc(-c3ccc(NC(=O)NCc4ccccc4)cc3S(=O)(=O)NC(C)(C)C)s2)CC1 [Compound 62B] | 0.15 to 1 µM
